pIC50: −log10 of the molar value. Like-named read-outs stand apart in the source and are kept apart here.
Legend:
human FGFR4 = biological target: T1, human FGFR4 (Homo sapiens, UniProt P22455); assay: 33P isotope-labeled kinase activity assay, FGFR4; assay type: biochemical; conditions: ATP 100 μM
T1 construct: purchased Invitrogen P3054
Protocol: (§1) The IC50 value was tested by ^33P isotope-labeled kinase activity assay (Reaction Biology Corp) to evaluate the inhibition of the test compounds on human FGFR1, FGFR4, and c-Met.
(§2) Buffer: 20 mM Hepes (pH 7.5), 10 mM MgCl2, 1 mM EGTA, 0.02% Brij35, 0.02 mg/ml BSA, 0.1 mMNa3VO4, 2 mM DTT, and 1% DMSO.
(§3) Test procedure: At room temperature, the test compound was dissolved in DMSO to prepare a 10 mM solution for use. The substrate was dissolved in freshly prepared buffer, and the test kinase was added and mixed well. A solution of the test compound in DMSO was added to the mixed reaction solution using an acoustic technology (Echo550). The compound concentration in the reaction solution was 1 μM, 0.25 μM, […], 0.977 nM, 0.244 nM, 0.061 nM, 0.0153 nM, 0.00381 nM, or 10 μM, 2.50 μM, 0.62 μM, 0.156 μM, 39.1 nM, 9.8 nM, 2.4 nM, 0.61 nM, 0.15 nM, and 0.038 nM, respectively. After 15 min of incubation, ^33P-ATP (with an activity of 0.01 μCi/nL, the corresponding concentration is listed in Table 18) was added to start the reaction. The supplier's catalogue number, lot number, and concentration in the reaction solution of FGFR1, FGFR4, c-Met, and substrates thereof are listed in Table 18. […]

human c-Met = biological target: T2, human c-Met (Homo sapiens, UniProt P08581); assay: 33P isotope-labeled kinase activity assay, c-Met; assay type: biochemical; conditions: ATP 10 μM
T2 construct: purchased Invitrogen PV3143
T2 sequence (P08581 25-1390): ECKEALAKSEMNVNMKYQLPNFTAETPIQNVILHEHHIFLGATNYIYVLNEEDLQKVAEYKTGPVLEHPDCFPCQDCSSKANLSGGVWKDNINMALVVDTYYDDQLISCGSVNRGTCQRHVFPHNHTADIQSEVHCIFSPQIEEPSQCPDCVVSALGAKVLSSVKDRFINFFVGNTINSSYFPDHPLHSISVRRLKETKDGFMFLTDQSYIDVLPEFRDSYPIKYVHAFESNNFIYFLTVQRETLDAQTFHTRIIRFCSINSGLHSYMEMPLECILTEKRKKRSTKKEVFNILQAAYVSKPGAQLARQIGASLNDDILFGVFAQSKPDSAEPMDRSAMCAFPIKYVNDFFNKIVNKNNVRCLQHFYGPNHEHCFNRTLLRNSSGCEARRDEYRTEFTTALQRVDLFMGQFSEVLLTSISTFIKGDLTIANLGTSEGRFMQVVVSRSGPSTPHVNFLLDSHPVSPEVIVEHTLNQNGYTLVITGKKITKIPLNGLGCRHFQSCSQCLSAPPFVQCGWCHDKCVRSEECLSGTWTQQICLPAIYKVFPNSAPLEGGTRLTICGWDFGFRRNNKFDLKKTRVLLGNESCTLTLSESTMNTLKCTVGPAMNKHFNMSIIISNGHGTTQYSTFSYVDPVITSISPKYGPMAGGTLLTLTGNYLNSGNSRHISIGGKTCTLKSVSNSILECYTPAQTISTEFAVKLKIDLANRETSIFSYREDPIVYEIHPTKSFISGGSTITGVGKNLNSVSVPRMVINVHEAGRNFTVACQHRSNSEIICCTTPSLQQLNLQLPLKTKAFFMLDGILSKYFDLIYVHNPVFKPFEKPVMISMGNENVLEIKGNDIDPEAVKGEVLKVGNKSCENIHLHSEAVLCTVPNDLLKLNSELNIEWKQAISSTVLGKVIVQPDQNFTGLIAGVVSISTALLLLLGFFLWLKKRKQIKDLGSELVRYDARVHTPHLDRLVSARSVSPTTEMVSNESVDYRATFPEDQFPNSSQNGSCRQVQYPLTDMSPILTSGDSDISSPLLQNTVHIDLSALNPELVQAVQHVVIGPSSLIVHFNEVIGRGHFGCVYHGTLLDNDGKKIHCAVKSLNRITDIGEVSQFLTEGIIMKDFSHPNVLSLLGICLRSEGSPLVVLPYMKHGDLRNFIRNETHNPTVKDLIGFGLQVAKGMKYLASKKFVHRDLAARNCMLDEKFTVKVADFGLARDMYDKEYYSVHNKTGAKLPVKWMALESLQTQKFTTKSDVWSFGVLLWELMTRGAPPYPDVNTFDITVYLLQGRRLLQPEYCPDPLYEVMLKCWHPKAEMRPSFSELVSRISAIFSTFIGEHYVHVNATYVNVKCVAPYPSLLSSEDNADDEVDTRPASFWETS
Protocol: as §1, §2, §3

[1] = Solubility test in media of various pH (water, SGF, FaSSIF, FeSSIF); assay type: physicochemical; conditions: for solubility at 24 h: read-out: Solubility (mg/ml)_24 h
Protocol: The solubility of the crystal form A of the compound of Formula (II) in 4 media with different pH values was tested. About 10 mg of the crystal form A of the compound of Formula (II) was weighed, and then 5.0 mL of different media (water, SGF, FaSSIF, and FeSSIF) were added respectively, to form a suspension. A magnetron was added to the suspension and the suspension was stirred on a magnetic stirrer for 2 hrs, and a sample was taken and centrifuged after 4 hrs. The sample in the upper layer was determined for concentration by HPLC and determined for the pH value.
• FaSSIF: (1). 0.042 g of sodium hydroxide, 0.3438 g of sodium dihydrogen phosphate and 0.6186 g of sodium chloride were weighed, added to 90 mL of purified water and mixed well. The solution was adjusted to pH 6.5 with 1 N hydrochloric acid or 1 N sodium hydroxide, and made up to 100 mL with purified water. (2). 0.224 g of commercially available powder of FaSSIF/FeSSIF/FaSSGF was added to 50 mL of the buffer, stirred until dissolved, and made up to 100 mL with purified water. The prepared buffer was left to stand at room temperature for 2 hrs, and observed to be slightly milky white, which was ready for use (simulating intestinal juice in human before eating). • FeSSIF: (1). 0.404 g of sodium hydroxide, and 0.865 g of glacial acetic acid, 1.1874 g of sodium chloride were weighed and added to 90 mL of purified water and mixed well. The solution was adjusted to pH 5.0 with 1 N hydrochloric acid or 1 N sodium hydroxide, and made up to 100 mL with purified water. (2). 1.12 g of commercially available powder of FaSSIF/FeSSIF/FaSSGF was added to 50 mL of the buffer, stirred until dissolved, and made up to 100 mL with purified water. The prepared buffer was left to stand at room temperature for 2 hrs, and observed to be a clear liquid, which was ready for use (simulating intestinal juice in human after eating). • FaSSGF (SGF): (1). 0.2 g of sodium chloride was weighed and added to 90 mL of purified water and mixed well. The solution was adjusted to pH 1.8 with 1 N hydrochloric acid, made up to 100 mL with purified water, and left to stand until it was naturally cooled to room temperature (simulating human gastric juice before eating).

[2] = Solid stability test (high temperature, high humidity, light, accelerated); assay type: physicochemical
Protocol: High Performance Liquid Chromatography (HPLC) of the Present Invention [table] Experimental method: 12 parallel samples of the crystal form A of the compound of formula (II) were weighed in an amount of about 1 g each. Each sample was fed to a double-layer LDPE bag, and each layer of the LDPE bag was tied and sealed. […] The photostability experiment was carried out as described in the Chinese Pharmacopoeia and ICH Q1B. The samples were irradiated with visible light and UV light.

[3] = Acceleration experiment (40° C./relative humidity 75%, open), 1 month
[4] = Acceleration experiment (40° C./relative humidity 75%, open), 2 month
[5] = Acceleration experiment (40° C./relative humidity 75%, open), 3 month
[6] = High humidity (room temperature/relative humidity 92.5%, open), Day 5
[7] = High humidity (room temperature/relative humidity 92.5%, open), Day 10
[8] = High humidity (room temperature/relative humidity 92.5%, open), Day 30
[9] = High temperature (60° C., open), Day 5
[10] = High temperature (60° C., open), Day 10
[11] = High temperature (60° C., open), Day 30
[12] = Light irradiation (1.2 × 10^6 Lux·hr / near ultraviolet 200 w·hr/m^2, open 10 days), light irradiation sample
[13] = Light irradiation test, sample in the dark

T1 sequence (P22455 22-802): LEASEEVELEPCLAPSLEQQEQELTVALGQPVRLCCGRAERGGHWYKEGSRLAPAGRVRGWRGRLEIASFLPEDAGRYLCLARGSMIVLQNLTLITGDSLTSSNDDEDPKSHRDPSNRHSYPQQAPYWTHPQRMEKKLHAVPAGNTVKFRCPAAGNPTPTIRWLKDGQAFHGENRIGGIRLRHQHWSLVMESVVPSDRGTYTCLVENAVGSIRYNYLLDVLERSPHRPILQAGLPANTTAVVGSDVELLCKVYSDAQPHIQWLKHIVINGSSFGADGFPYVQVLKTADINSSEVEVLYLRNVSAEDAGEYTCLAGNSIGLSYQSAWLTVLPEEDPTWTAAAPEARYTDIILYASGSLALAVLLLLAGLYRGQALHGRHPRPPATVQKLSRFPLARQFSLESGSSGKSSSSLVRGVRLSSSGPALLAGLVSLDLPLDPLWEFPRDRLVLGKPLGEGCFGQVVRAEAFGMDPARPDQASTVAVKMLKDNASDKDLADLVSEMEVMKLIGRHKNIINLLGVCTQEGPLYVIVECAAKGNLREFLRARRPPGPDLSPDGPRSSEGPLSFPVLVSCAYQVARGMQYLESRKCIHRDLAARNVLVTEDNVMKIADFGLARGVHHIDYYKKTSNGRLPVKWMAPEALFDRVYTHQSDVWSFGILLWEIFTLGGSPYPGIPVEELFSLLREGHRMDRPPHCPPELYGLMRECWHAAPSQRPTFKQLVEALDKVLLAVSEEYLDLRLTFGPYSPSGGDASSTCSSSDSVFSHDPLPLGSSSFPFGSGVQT

COc1cc(OC)c(F)c(Cc2c[nH]c3ncc(-c4cnn(CCO)c4)cc23)c1F.Cl
pIC50 (human FGFR4): 8.83 | pIC50 (human c-Met): 7.80 | solubility at 24 h ([1]; SGF (FaSSGF), pH 1.25, simulated gastric fluid, thermodynamic from solid, SGF, pH (24 h) 1.25, suspension): 0.112 mg/mL | solubility at 24 h ([1]; pH 4.89, thermodynamic from solid, FeSSIF, pH (24 h) 4.89, suspension): 0.252 mg/mL | solubility at 24 h ([1]; pH 5.55, thermodynamic from solid, FaSSIF, pH (24 h) 5.55, suspension): 0.004 mg/mL | Solubility in words ([1]; simulated gastric juice before eating in human (SGF)): good | Solubility in words ([1]; simulated intestinal juice before eating (FaSSIF)): poor | Solubility in words ([1]; simulated intestinal juice of the small intestine after eating in human (FeSSIF)): good | Solubility in words ([1]; water): hard to dissolve in water | solubility at 24 h ([1]; water, pH 2.42, water, thermodynamic from solid): 0.009 mg/mL | Content (%) [2, 3]: 99.7% | Total impurity (%) [2, 3]: 0.67% | Content (%) [2, 4]: 99.7% | Total impurity (%) [2, 4]: 0.69% | Content (%) [2, 5]: 99.9% | Total impurity (%) [2, 5]: 0.68% | Content (%) ([2]; Day 0): 99.8% | Total impurity (%) ([2]; Day 0): 0.71% | Content (%) [2, 6]: 99.6% | Total impurity (%) [2, 6]: 0.75% | Content (%) [2, 7]: 99.8% | Total impurity (%) [2, 7]: 0.71% | Content (%) [2, 8]: 98.9% | Total impurity (%) [2, 8]: 0.65% | Content (%) [2, 9]: 99.6% | Total impurity (%) [2, 9]: 0.78% | Content (%) [2, 10]: 99.9% | Total impurity (%) [2, 10]: 0.76% | Content (%) [2, 11]: 98.5% | Total impurity (%) [2, 11]: 0.80% | Content (%) [2, 12]: 99.8% | Total impurity (%) [2, 12]: 0.76% | Content (%) [2, 13]: 99.8% | Total impurity (%) [2, 13]: 0.79% | Solid stability in words ([2]; accelerated conditions and affecting factors): very stable, and no obvious unknown impurities are formed
